Source: ChEMBL document CHEMBL1141738, “Antihyperglycemic effects of N-containing sugars from Xanthocercis zambesiaca, Morus bombycis, Aglaonema treubii, and Castanospermum australe in streptozotocin-diabetic mice” (1998)
Active and inactive are the calls of the source. The calls are words filed in the database; no cut-off is given here.

Assays:
Mus musculus [1] = organism: Mus musculus; experiment: Antihyperglycemic effect on STZ-diabetic ddY mouse assessed as reduction in blood glucose level by glucose oxidase method; format: functional, organism-based
Mus musculus [2] = experiment: Antihyperglycemic effect in STZ-diabetic ddY mouse assessed as reduction in blood glucose level at 150 umol/kg, ip after 4 hrs by glucose oxidase method; format: functional, organism-based
Mus musculus [3] = experiment: Antihyperglycemic effect in STZ-diabetic ddY mouse assessed as reduction in blood glucose level at 150 umol/kg, ip after 4 to 6 hrs by glucose oxidase method; format: functional, organism-based
Mus musculus [4] = experiment: Antihyperglycemic effect in STZ-diabetic ddY mouse assessed as reduction in blood glucose level at 150 umol/kg, ip after 2 hrs by glucose oxidase method; format: functional, organism-based; details: TDE = time-dependent effect
Mus musculus [5] = experiment: Antihyperglycemic effect on STZ-diabetic ddY mouse assessed as increase in plasma insulin level at 300 umol/kg, ip after 30 mins by ELISA; format: functional
Mus musculus [6] = experiment: Antihyperglycemic effect on STZ-diabetic ddY mouse assessed as increase in plasma insulin level at 300 umol/kg, ip after 2 hrs by ELISA; format: functional
Pancreas [7] = experiment: Potentiation of 8.3 mM glucose-induced immunoreactive insulin release in perfused Wistar rat pancreas by radioimmunoassay; format: functional, tissue-based
Pancreas [8] = experiment: Potentiation of 8.3 mM glucose-induced immunoreactive insulin release in perfused Wistar rat pancreas at 1 mM by radioimmunoassay; format: functional, tissue-based
Mus musculus [9] = experiment: Antihyperglycemic effect in STZ-diabetic ddY mouse assessed as reduction in blood glucose level at 30 umol/kg, ip after 6 hrs by glucose oxidase method; format: functional

With `OC[C@H]1NCC[C@@H](O)[C@@H]1O[C@@H]1O[C@H](CO)[C@@H](O)[C@H](O)[C@H]1O` the Activity (Mus musculus [1]) was “Dose-dependent effect”.
For `OC[C@H]1N[C@H](CO)[C@@H](O)[C@@H]1O`, the Activity (Mus musculus [2]) was “Active”.
`O[C@H]1[C@H](O)[C@@H](O)CN2CC[C@H](O)[C@H]12` was tested, and the Activity (Mus musculus [3]) was “Active”.
`OC[C@H]1NCC[C@@H](O)[C@@H]1O` [FAGOMINE] was tested, and the Activity (Mus musculus [4]) was “tde”, the Activity (Mus musculus [5]) was 454 pg/mL and the Activity (Mus musculus [6]) was 560 pg/mL. The Activity (Pancreas [7]) was “Dose-dependent effect” and the Activity (Pancreas [8]) was “Active”.
Compound `COc1ccc(Cl)cc1C(=O)NCCc1ccc(S(=O)(=O)NC(=O)NC2CCCCC2)cc1` [GLYBURIDE] has an Activity (Mus musculus [9]) of 138 mg/dL.
